The values below are quoted from earlier work in US7534449B2, “Targeted and high density drug loaded polymeric materials” (Yale University, priority 2004, dated 2009).

The structures appear in SMILES notation.

For the compound `COc1cccc2c1C(=O)c1c(O)c3c(c(O)c1C2=O)C[C@@](O)(C(=O)CO)C[C@@H]3O[C@H]1C[C@H](N)[C@H](O)[C@H](C)O1` [Dox, doxorubicin], the pKa (commonly the pH at which an ionisable group is half protonated) is given as 7.6. For the same compound, where the note is “aqueous environments”, the solubility result is listed as “limited solubility”.
